The record followed here is patent publication US9187474B2, “Raf inhibitor compounds” (Deciphera Pharmaceuticals, LLC, priority 2012, dated 2015).

The structures appear in SMILES notation. Where a name gives a salt, the structure may show the parent alone.

The test system of data set [1] is A375res cells. Nature of the data set: Proliferation assay in vemurafenib-resistant A375res melanoma cells. The settings on record: Homo sapiens, 72 h, read-out: absolute IC50 values.
Description: (§1) A vemurafenib-resistant cell line is generated by chronic treatment of the human melanoma cell line A375 (ATCC) harboring the B-Raf V600E mutation with increasing concentrations PLX4720.
Data set [2] deals with phospho-ERK in HCT-116 cells. Nature of the data set: HCT-116 cell pERK assay (AlphaScreen SureFire). The class given is cell-based. Conditions: Homo sapiens; HCT-116 cells, B-Raf wild type, K-Ras mutation; 4 hours; read-out: IC50 reduction of phospho-ERK signal. How it is done: Examples of Formula I are tested against HCT-116 cells harboring wild type B-Raf and K-Ras mutation. The phospho-ERK activities are evaluated as described below.
HCT-116 cells (catalog #CCL-247) are obtained from the American Type Culture Collection (ATCC, Manassas, Va.). Briefly, cells are grown in McCoy's 5A supplemented with 10% characterized fetal bovine serum (Invitrogen, Carlsbad, Calif.), and 1% Penicillin/Streptomycin/L-Glutamine at 37 degrees Celsius, 5% CO2, and 95% humidity. Cells are allowed to expand until reaching 75-90% confluency at which point they are subcultured or harvested for assay use. HCT-116 cells suspended in complete media are added to 384-well tissue culture treated plates (3×10^5 cells/mL; 7,500 cells per well). The cells are incubated overnight at 37 degrees Celsius, 5% CO2, and 95% humidity. Next, test compound or DMSO diluted in complete media is added to the wells (0.25% final DMSO concentration). The plates are then incubated for 4 hours at 37 degrees Celsius, 5% CO2, and 95% humidity. Following compound incubation, the cells are lysed at 4° C. for 20 minutes with shaking Cell lysates are centrifuged and the supernatant is transferred to a new plate. An aliquot of each lysate is transferred to a white 384-well assay plate. Using the AlphaScreen SureFire pERK kit (Perkin-Elmer, Waltham, Mass.), an acceptor bead mixture is added to each well and incubated for 2 h at room temperature in the dark. A donor bead mixture is then added to each well and incubated for 2 h at room temperature in the dark. Plates are read using a Synergy2 plate reader (Biotek, Winooski, Vt.) in Plate Mode with Timing Control. Read: (F)1: excitation: 680/30 nm, emission: Plug. 2: Excitation: Plug, emission: 570/100 nm. Top mirror 635 nm. Data is analyzed using Prism software (Graphpad, San Diego, Calif.) to calculate IC50 values and Excel software (Microsoft, Redmond, Wash.) to calculate stimulation compared to control.

Data set [3] relates to A375res cells.
Description: as §1
Data set [4] has as its system phospho-ERK in A375 (B-Raf V600E) xenograft. Description: A375 mouse xenograft pharmacodynamic assay (tumor pERK by ELISA). The class given is in vivo, mice. Conditions: 2 h post dose, vs vehicle, read-out: Measured pERK inhibition 2 h post dose; for inhibition in vivo at 20 mg/kg: A-375, 20 mg/kg oral. The protocol:
To evaluate the in vivo pharmacodynamic (PD) effects of compounds of Formula I, an A375 (B-Raf V600E) xenograft model is employed. Briefly, 10×10^6 A375 tumor cells (ATCC) are prepared in a 1:1 matrigel mix (0.2 mL total volume) and implanted by subcutaneous injection in hind leg of nude female mice. A total of 4 mice each for each dosing group are employed. Treatment is initiated with oral administration (gavage) of test compound or vehicle (20% captisol, 25 mM phosphate, pH2.0) in 0.2 mL volume when average tumor size reaches approximately 300 mg. After a fixed time interval, the tumors are harvested and the phospho-ERK levels are measured by ELISA (Enzyme-linked immunosorbent assay). Treated groups are compared to the vehicle control group to calculate % inhibition.

As to `CNc1cc2nc(C)c(-c3cc(NC(=O)NCCC(C)(C)C#N)c(F)cc3C)cc2cn1` [Example 9, 1-(3-cyano-3-methylbutyl)-3-(2-fluoro-4-methyl-5-(2-methyl-7-(methylamino)-1,6-naphthyridin-3-yl)phenyl)urea], the figures for the concentration for half-maximal inhibition (IC50) (in the data set with A375res cells [1]; in data set [2]) were 9 to 504 nM and 2 to 96 nM, respectively. The “IC50 shift A375 to A375res” value with A375res cells [3] was 0.5-4.9 fold. Moreover, in data set [4], the inhibition in vivo at 20 mg/kg is 78%.

As for `CNc1cc2nc(C)c(-c3cc(NC(=O)NC4CCC(F)(F)CC4)c(F)cc3C)cc2cn1` [Example 12, 1-(4,4-difluorocyclohexyl)-3-(2-fluoro-4-methyl-5-(2-methyl-7-(methylamino)-1,6-naphthyridin-3-yl)phenyl)urea hydrochloride], the values for the IC50 (in the data set with A375res cells [1]; in data set [2]) were 9 to 504 nM and 2 to 96 nM, respectively. Besides, the “IC50 shift A375 to A375res” value in the data set with A375res cells [3] was 0.5-4.9 fold. In data set [4], the inhibition in vivo at 20 mg/kg is 58%.

Regarding `CNc1cc2nc(C)c(-c3cc(NC(=O)NCCC(C)(C)C)c(F)cc3C)cc2cn1` [Example 17, 1-(3,3-dimethylbutyl)-3-(2-fluoro-4-methyl-5-(2-methyl-7-(methylamino)-1,6-naphthyridin-3-yl)phenyl)urea], the IC50 with A375res cells [1] is 9 to 504 nM. Further, in the data set on A375res cells [3], the “IC50 shift A375 to A375res” value is reported as 0.5-4.9 fold. In addition, the inhibition in vivo at 20 mg/kg in data set [4] was 89%.

For `CNc1cc2nc(C)c(-c3cc(NC(=O)NCCC(C)(C)OC)c(F)cc3F)cc2cn1` [Example 24, 1-(2,4-difluoro-5-(2-methyl-7 (methylamino)-1,6-naphthyridin-3-yl)phenyl)-3-(3-methoxy-3-methylbutyl)urea hydrochloride], the IC50 in the data set on A375res cells [1] is 9 to 504 nM; in data set [2] it was 2 to 96 nM. Further, the inhibition in vivo at 20 mg/kg in data set [4] came to 45%.

`CC(=O)Nc1cc2nc(C)c(-c3cc(NC(=O)NCCC(C)(C)C#N)c(F)cc3F)cc2cn1` [Example 43, N-(3-(5-(3-(3-cyano-3-methylbutyl)ureido)-2,4-difluorophenyl)-2-methyl-1,6-naphthyridin-7-yl)acetamide]: the inhibition in vivo at 20 mg/kg in data set [4] amounted to 55%.

With `Cc1nc2cc(NCCO)ncc2cc1-c1cc(NC(=O)NCCC(C)(C)C)c(F)cc1F` [Example 47, 1-(2,4-difluoro-5-(7-(2-hydroxyethylamino)-2-methyl-1,6-naphthyridin-3-yl)phenyl)-3-(3,3-dimethylbutyl)urea], the IC50 with A375res cells [1] is 9 to 504 nM; in data set [2] it was 2 to 96 nM. Also, the “IC50 shift A375 to A375res” value with A375res cells [3] is given as 0.5-4.9 fold. Besides, in data set [4], the inhibition in vivo at 20 mg/kg came to 50%.

In the case of `CNc1cc2nc(C)c(-c3cc(NC(=O)NC[C@@H](O)C(C)(C)C)c(F)cc3C)cc2cn1` [Example 56, (S)-1-(2-fluoro-4-methyl-5-(2-methyl-7-(methylamino)-1,6-naphthyridin-3-yl)phenyl)-3-(2-hydroxy-3,3-dimethylbutyl)urea], the half-maximal inhibitory concentration (IC50) in data set [2] is 2 to 96 nM. The inhibition in vivo at 6 mg/kg in data set [4] (A-375, 6 mg/kg oral) worked out at 75%.

For the compound `CNc1cc2nc(C)c(-c3cc(NC(=O)NC[C@H](O)C(C)(C)C)c(F)cc3C)cc2cn1` [Example 57, (R)-1-(2-fluoro-4-methyl-5-(2-methyl-7-(methylamino)-1,6-naphthyridin-3-yl)phenyl)-3-(2-hydroxy-3,3-dimethylbutyl)urea], the IC50 lay within 9 to 504 nM in the data set with A375res cells [1] and 2 to 96 nM in data set [2]. For the same compound, the “IC50 shift A375 to A375res” value in the data set on A375res cells [3] is 0.5-4.9 fold. Besides, the inhibition in vivo at 20 mg/kg in data set [4] is 96%.

Take `Cc1cc(F)c(NC(=O)NCCC(C)(C)C)cc1-c1cc2cnc(NCCO)cc2nc1C` [Example 64, 1-(3,3-dimethylbutyl)-3-(2-fluoro-5-(7-((2-hydroxyethyl)amino)-2-methyl-1,6-naphthyridin-3-yl)-4-methylphenyl)urea]: the IC50 in data set [2] is 2 to 96 nM. In data set [4], the inhibition in vivo at 20 mg/kg amounted to 79%.

Regarding `CNc1cc2nc(C)c(-c3cc(NC(=O)NC[C@@H](O)C(C)C)c(F)cc3C)cc2cn1` [Example 75, (S)-1-(2-fluoro-4-methyl-5-(2-methyl-7-(methylamino)-1,6-naphthyridin-3-yl)phenyl)-3-(2-hydroxy-3-methylbutyl)urea], the inhibition in vivo at 20 mg/kg in data set [4] amounted to 89%.

On to `CNc1cc2nc(C)c(-c3cc(NC(=O)N[C@H]4C[C@](C)(F)C4)c(F)cc3C)cc2cn1` [Example 77, 1-(3-fluoro-cis(3-methylcyclobutyl))-3-(2-fluoro-4-methyl-5-(2-methyl-7-(methylamino)-1,6-naphthyridin-3-yl)phenyl)urea], for which the IC50 with A375res cells [1] is 9 to 504 nM; in data set [2], 2 to 96 nM. The “IC50 shift A375 to A375res” value with A375res cells [3] is listed as 0.5-4.9 fold. Besides, in data set [4], the inhibition in vivo at 20 mg/kg worked out at 96%.

With `CNc1cc2nc(C)c(-c3cc(NC(=O)NC4CC(C)(C)C4)c(F)cc3F)cc2cn1` [Example 78, 1-(2,4-difluoro-5-(2-methyl-7-(methylamino)-1,6-naphthyridin-3-yl)phenyl)-3-(3,3-dimethylcyclobutyl)urea hydrochloride], the inhibition in vivo at 20 mg/kg in data set [4] worked out at 68%.

In the case of `CNc1cc2nc(C)c(-c3cc(NC(=O)NC4CCC(F)(F)CC4)c(F)cc3F)cc2cn1` [Example 88, 1-(2,4-difluoro-5-(2-methyl-7-(methylamino)-1,6-naphthyridin-3-yl)phenyl)-3-(4,4-difluorocyclohexyl)urea hydrochloride], the IC50 lay in the range of 9 to 504 nM with A375res cells [1] and 2 to 96 nM in data set [2]. For the same compound, the “IC50 shift A375 to A375res” value with A375res cells [3] is reported as 0.5-4.9 fold.

On to `CNc1cc2nc(C)c(-c3cc(NC(=O)NCCC(C)(C)C(F)(F)F)c(F)cc3C)cc2cn1` [Example 89, 1-(2-fluoro-4-methyl-5-(2-methyl-7-(methylamino)-1,6-naphthyridin-3-yl)phenyl)-3-(4,4,4-trifluoro-3,3-dimethylbutyl)urea hydrochloride], for which the figures for the IC50 (with A375res cells [1]; in data set [2]) were 9 to 504 nM and 2 to 96 nM, respectively. The “IC50 shift A375 to A375res” value in the data set on A375res cells [3] is 0.5-4.9 fold. The inhibition in vivo at 20 mg/kg in data set [4] turned out to be 84%.

As for `CNc1cc2ncc(-c3cc(NC(=O)NCCC(C)(C)F)c(F)cc3C)cc2cn1` [Example 93, 1-(3-fluoro-3-methylbutyl)-3-(2-fluoro-4-methyl-5-(7-(methylamino)-1,6-naphthyridin-3-yl)phenyl)urea], the figures for the IC50 (in the data set with A375res cells [1]; in data set [2]) were 9 to 504 nM and 2 to 96 nM, respectively. Further, the “IC50 shift A375 to A375res” value with A375res cells [3] was 0.5-4.9 fold.

Regarding `CNc1cc2nc(C)c(-c3cc(NC(=O)NCCC4(C)CC4)c(F)cc3F)cc2cn1` [Example 94, 1-(2,4-difluoro-5-(2-methyl-7-(methylamino)-1,6-naphthyridin-3-yl)phenyl)-3-(2-(1-methylcyclopropyl)ethyl)urea hydrochloride], the 50% inhibitory concentration (IC50) in the data set on A375res cells [1] was 9 to 504 nM; in data set [2] it was 2 to 96 nM. Also, the “IC50 shift A375 to A375res” value in the data set with A375res cells [3] was 0.5-4.9 fold.

On to `CC(=O)Nc1cc2nc(C)c(-c3ccc(F)c(NC(=O)NCCC(C)(C)C)c3)cc2cn1` [Example 103, N-(3-(3-(3-(3,3-dimethylbutyl)ureido)-4-fluorophenyl)-2-methyl-1,6-naphthyridin-7-yl)acetamide], for which the inhibition in vivo at 20 mg/kg in data set [4] was 90%.

Turning to `CC(=O)Nc1cc2nc(C)c(-c3cc(NC(=O)NCCC(C)(C)C)c(F)cc3F)cc2cn1` [Example 105, N-(3-(5-(3-(3,3-dimethylbutyl)ureido)-2,4-difluorophenyl)-2-methyl-1,6-naphthyridin-7-yl)acetamide], the inhibition in vivo at 20 mg/kg in data set [4] worked out at 87%.

On to `Cc1cc(F)c(NC(=O)NCCC(C)(C)F)cc1-c1cc2cnc(NC=O)cc2nc1C` [Example 125, N-(3-(4-fluoro-5-(3-(3-fluoro-3-methylbutyl)ureido)-2-methylphenyl)-2-methyl-1,6-naphthyridin-7-yl)formamide hydrochloride], for which the IC50 in the data set with A375res cells [1] was in the range of 9 to 504 nM; in data set [2], 2 to 96 nM. Moreover, in the data set with A375res cells [3], the “IC50 shift A375 to A375res” value is recorded as 0.5-4.9 fold.
